Reference: patent US20220110934A1, “PHARMACEUTICAL COMPOSITION” (Ricoh Company, Ltd., priority 2019, published 2022)

Experiment: Dissolution test in physiological saline (Test Example 1, FIG. 11)
Type: physicochemical
Conditions: 6 mg/mL as nintedanib in 100 mL physiological saline, 20° C., stirring
Protocol: The pharmaceutical composition (i) or the nintedanib ethanesulfonate (obtained from LC laboratories) was added to 100 mL of physiological saline so that the amount of nintedanib would be 6 mg/mL. The resultant mixture was subjected to a dissolution test at a liquid temperature of 20° C. under stirring with a stirrer.
FIG. 11 is a graph presenting the concentrations of nintedanib in the solutions measured over time.

With `COC(=O)c1ccc2c(c1)NC(=O)/C2=C(\Nc1ccc(N(C)C(=O)CN2CCN(C)CC2)cc1)c1ccccc1` [nintedanib ethanesulfonate, Nintedanib ethanesulfonate] as the compound, how does the “course of solubility (concentration of nintedanib in solution) over time” value read?
Its value is “solubility decreased over time and sedimentation of insoluble matter was observed”.
